Here are results for seven compounds from patent US10385108B2, “Peptide analogs of alpha-melanocyte stimulating hormone” (Genzyme Corporation, priority 2008, dated 2019).

One assay deals with MC5R (Homo sapiens, UniProt P33032). The experiment in a line: Competitive binding with 125I-NDP-MSH, HEK293 membrane preparations, MC5R. As to conditions: Ki MC5R, competition with 125I-NDP-MSH; cells noted in μM.
The next assay has as its target MC4R (Homo sapiens, UniProt P32245). The experiment in a line: Competitive binding with 125I-NDP-MSH, HEK293 membrane preparations, MC4R.
The target of a further assay is MC3R (Homo sapiens, UniProt P41968). The experiment in a line: Competitive binding with 125I-NDP-MSH, HEK293 membrane preparations, MC3R.
Assay [1] has as its target T1, MC1R (Homo sapiens, UniProt Q01726). As to the kind of experiment: Competitive binding with 125I-NDP-MSH, HEK293 membrane preparations, MC1R.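 As to all read-outs here: Read-out: receptor-bound radioligand retained by filtration and counted.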 As to conditions: for Ki: Ki MC1R, competition with 125I-NDP-MSH.
Method: (§1) Binding analysis was done by Cerep laboratories (Paris, France) with coded samples.
(§2) The mixtures were filtered through 96-well GFC filters (Millipore, Billerica, Mass.), washed 3 times with binding buffer without BSA, dried and counted.
(§3) A competitive binding assay using a MCR panel including MCR 1, 3, 4, and 5 was performed.
In assay [2] the test system is B16-F1 murine melanoma cells. As to the kind of experiment: Intracellular cAMP in B16-F1 melanoma cells. The class given is cell-based. The note with it: for EC50: B16-F1 cells, 10^-4-10^-11 M, 30 min, IBMX. On the procedure: B16-F1 (melanoma cell line) cells from American Type Culture Collection (Manassas, Va.) were seeded into flat bottom 96 well plates at 5×10^4/well and cultured overnight in DMEM (Cambrex, Walkersville, Md.) supplemented with 2 mM glutamine, antibiotics (100 U/ml penicillin and 100 […]) and 10% heat-inactivated fetal bovine serum (Invitrogen, Grand Island, N.Y.). […] Cells were lysed and intracellular cAMP levels were measured by an enzyme immunoassay kit (Amersham Biosciences, Piscataway, N.J.). Forskolin (Sigma, St. Louis, Mo.) at 100 μM served as positive controls.
cAMP levels in B16-F1 melanoma cells after treatment with native α-MSH, RI α-MSH, or a scrambled control peptide were examined. The […] melanoma cell line expresses a high number of MCR1 receptors (3000-4000 receptors/cell) compared with macrophages cell lines which express only 100-200 receptors/cell. Therefore we selected to examine the effect of the RI α-MSH treatment on the melanoma cell line. Murine melanoma B16-F1 cells were treated with native α-MSH, RI α-MSH, or control scrambled peptide at concentrations 1 pg/ml-1 μg/ml. After 30 min, cells were lysed and intracellular cAMP was measured by an enzyme immunoassay. […] However, a higher concentration of RI α-MSH (100 ng/ml) was necessary to increase cAMP compared with native α-MSH which increased cAMP at a 10 pg/ml concentration. This difference in concentration of peptide necessary to increase cAMP levels may be the result of the binding affinity to the MCR1 receptor.
Murine melanoma B16-F1 cells were treated with native α-MSH, RI α-MSH, scrambled peptide control, KPV, or alanine substituted peptides of RI α-MSH at 1 μg/ml (FIG. 7B). […] Peptides designated 810, 811, and 812 have alanine substitutions in the central core tetrapeptide sequence (D-Trp D-Arg D-Phe D-His region; AA 5-8) (variant disclosed in SEQ ID NO:2) proposed to be involved in native α-MSH binding to the melanocortin receptor and its biological activity. […] The residues in the core tetrapeptide (wrfh) (variant disclosed in SEQ ID NO:2) and to a lesser extent, the methionine 4 of RI-MSH are critical for binding to MC1R.
B16-F1 murine melanoma cells were cultured into 96 well plates 5×10^4 cells/well overnight in media with L-glutamine and pen/strep and FBS. Media was removed and new media with IBMX was added to the cells for 1 hr. Cells were then treated with RI α-MSH, or RI α-MSH peptide analogs (890, 891, 892, 893, 894 or 895). Cells were lysed after 30 min using a cAMP assay kit and supernatant were used in the assay. Forskolin at 10 μM served as positive controls.
Intracellular cAMP was measured using a cAMP competition Assay Kit (Amersham Biosciences). All cell lysate samples were diluted 1:100 for analysis.
Murine melanoma B16-F1 cells were treated with RI α-MSH, or RI α-MSH analogs (869, 872, 880, 878, 886 and 890-895) at a concentration range of 10^−4-10^−11 M. cAMP levels from cells treated with RI α-MSH, or RI α-MSH analogs. […] See FIG. 22 for graphical data and Table 2 for EC50 data.

For assay [3], the target named is T1, MC1R. The arrangement: purchased Perkin Elmer, Boston Mass; host or cells: HEK293 transfected cell lines (membrane preparations). As to conditions: value quoted, not from Table 1; read-out: Ki MC1R (reported); cited from earlier work.
In the next assay the target is mouse MC1R (Mus musculus, UniProt Q01727). The experiment in a line: Binding affinity to mouse MC1R (data not shown).
In a further assay the test system is C57BL/6 mice. The experiment in a line: LPS inflammation mouse model, serum cytokines. The class given is in vivo. As to conditions: i.p. 30 min after LPS, serum at 2 h. On the procedure: Male C57BL/6 mice were challenged with LPS (1 ug/mouse), i.p. After 30 min mice were treated with dexamethasone (2 mg/kg; Sigma), RI-α-MSH analog 891, or RI-α-MSH. At 2 hrs after LPS challenge, mice were bled for serum. Cytokine analysis was measured by flow cytometry with a cytometric bead array kit (BD Biosciences).
C57BL/6 mice were injected with LPS, i.p. and 30 minutes later native α-MSH or RI α-MSH analog 891 was administered i.p. at doses ranging from 5 mg/kg to 0.156 mg/kg. RI α-MSH analog 891 is an analog of RI α-MSH in which d-Cha and hsiiss D-amino acids were added to the core peptide sequence. […] MCP-1 was not affected by native α-MSH treatment (FIG. 16B).

[4] abbreviates: peptides 5 to 0.156 mg/kg, dexamethasone 2 mg/kg.

Each structure is given as a SMILES string. Where two headings read alike, the source gives them in different places. Where a SMILES comes first, the peptide text is derived from it. [ ]: non-standard residue; d: D form. dCha = N[C@H](CC1CCCCC1)C(=O)O

MC5R, sequence (P33032 whole entry): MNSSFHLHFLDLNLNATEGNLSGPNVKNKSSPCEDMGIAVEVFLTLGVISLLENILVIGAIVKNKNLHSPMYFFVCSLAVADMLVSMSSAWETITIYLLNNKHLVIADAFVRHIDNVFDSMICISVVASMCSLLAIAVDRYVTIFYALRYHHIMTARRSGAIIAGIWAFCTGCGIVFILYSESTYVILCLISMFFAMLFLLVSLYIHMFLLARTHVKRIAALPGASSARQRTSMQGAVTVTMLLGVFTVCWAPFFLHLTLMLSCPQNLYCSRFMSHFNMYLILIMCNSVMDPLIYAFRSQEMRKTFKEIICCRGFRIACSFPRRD
T1 sequence (Q01726 whole entry): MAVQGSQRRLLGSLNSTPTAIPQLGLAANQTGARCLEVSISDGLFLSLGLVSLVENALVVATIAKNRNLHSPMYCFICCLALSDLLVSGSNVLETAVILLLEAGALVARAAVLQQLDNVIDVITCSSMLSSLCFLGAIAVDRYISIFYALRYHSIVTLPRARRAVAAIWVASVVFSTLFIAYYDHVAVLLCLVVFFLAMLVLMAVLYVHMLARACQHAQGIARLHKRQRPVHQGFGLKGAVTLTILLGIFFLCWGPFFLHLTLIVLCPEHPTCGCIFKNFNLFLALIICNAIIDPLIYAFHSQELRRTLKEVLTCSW
MC3R, sequence (P41968 whole entry): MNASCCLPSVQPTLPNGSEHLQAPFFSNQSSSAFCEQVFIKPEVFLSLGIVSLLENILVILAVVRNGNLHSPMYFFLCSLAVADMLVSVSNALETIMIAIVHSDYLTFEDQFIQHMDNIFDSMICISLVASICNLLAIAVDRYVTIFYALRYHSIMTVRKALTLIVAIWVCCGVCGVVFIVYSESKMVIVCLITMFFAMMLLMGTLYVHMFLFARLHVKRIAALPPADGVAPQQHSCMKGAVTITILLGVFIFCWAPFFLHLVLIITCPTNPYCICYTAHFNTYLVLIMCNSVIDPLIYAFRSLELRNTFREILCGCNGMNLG
MC4R, sequence (P32245 whole entry): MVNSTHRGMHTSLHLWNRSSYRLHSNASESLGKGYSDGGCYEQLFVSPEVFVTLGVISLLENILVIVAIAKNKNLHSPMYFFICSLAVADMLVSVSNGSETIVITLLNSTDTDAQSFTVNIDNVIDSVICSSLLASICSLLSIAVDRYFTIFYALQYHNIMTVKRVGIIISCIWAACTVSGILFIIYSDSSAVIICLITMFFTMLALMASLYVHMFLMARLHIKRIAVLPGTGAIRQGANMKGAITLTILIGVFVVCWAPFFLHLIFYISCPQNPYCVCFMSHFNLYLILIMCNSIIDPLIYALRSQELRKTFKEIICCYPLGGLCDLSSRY
mouse MC1R, sequence (Q01727 whole entry): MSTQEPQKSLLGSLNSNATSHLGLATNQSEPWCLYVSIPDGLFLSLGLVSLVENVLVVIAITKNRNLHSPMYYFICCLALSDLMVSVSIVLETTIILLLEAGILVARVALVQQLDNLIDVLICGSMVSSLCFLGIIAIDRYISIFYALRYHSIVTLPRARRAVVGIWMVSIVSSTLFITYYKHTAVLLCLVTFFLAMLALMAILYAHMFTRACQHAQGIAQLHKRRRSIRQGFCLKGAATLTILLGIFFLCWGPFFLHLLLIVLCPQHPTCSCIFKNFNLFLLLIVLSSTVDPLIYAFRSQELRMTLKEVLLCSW
Method for MC3R: as §1, §2, §3
Method for MC4R: as §1, §2, §3
Method for MC5R: as §1, §2, §3

As for `CCCCSCC[C@@H](NC(=O)[C@@H](CCC(=O)O)NC(=O)[C@@H](Cc1c[nH]cn1)NC(=O)[C@@H](Cc1ccccc1)NC(=O)[C@@H](CCCNC(=N)N)NC(=O)[C@@H](Cc1c[nH]c2ccccc12)NC(=O)CNC(=O)[C@@H](CCCCN)NC(=O)[C@H]1CCCN1C(=O)[C@H](NC(C)=O)C(C)C)C(=O)N[C@H](CO)C(=O)N[C@H](Cc1ccc(O)cc1)C(=O)N[C@H](CO)C(N)=O` [compound 878, vpkGwrfhe(D-buthionine)sys], the inhibitory constant (Ki) at MC5R was ~30 µM; on MC4R, > 30 µM; on MC3R it was ~40 µM; at MC1R [1] it was 2.3 nM.
Turning to `CSCC[C@@H](NC(=O)[C@@H](CCC(=O)O)NC(=O)[C@@H](Cc1c[nH]cn1)NC(=O)[C@@H](CC1CCCCC1)NC(=O)[C@@H](CCCNC(=N)N)NC(=O)[C@@H](Cc1c[nH]c2ccccc12)NC(=O)CNC(=O)[C@@H](CCCCN)NC(=O)[C@H]1CCCN1C(=O)[C@H](NC(C)=O)C(C)C)C(=O)N[C@H](CO)C(=O)N[C@H](Cc1ccc(O)cc1)C(=O)N[C@H](CO)C(N)=O` [compound 869, vpkGwr(D-Cha)hemsys], the inhibition constant Ki on MC5R was ~25 µM; on MC4R it was > 10 µM; at MC3R, > 30 µM; on MC1R [1], 2.2 nM. The same compound had an EC50 in assay [2] of 14 nM.
Take `NC(=O)[C@H](Cc1c[nH]c2ccccc12)NC(=O)[C@H](CCCN=C(N)N)NC(=O)[C@@H](Cc1ccccc1)NC(=O)[C@H](Cc1cnc[nH]1)NC(=O)CCCc1ccccc1` [compound 819, (Ph(CH2)3CO) HfRW]: the inhibitory constant (Ki) at MC1R [3] is 6 pM.
Turning to `CC[C@@H](C)[C@@H](NC(=O)[C@@H](CO)NC(=O)[C@@H](Cc1c[nH]cn1)NC(=O)[C@H](Cc1ccccc1)NC(=O)[C@@H](CCCNC(=N)N)NC(=O)[C@@H](Cc1c[nH]c2ccccc12)NC(=O)CNC(=O)[C@@H](CCCCN)NC(=O)[C@H]1CCCN1C(=O)[C@H](NC(C)=O)C(C)C)C(=O)N[C@@H](C(=O)N[C@H](CO)C(=O)N[C@H](CO)C(N)=O)[C@H](C)CC` [compound 880, vpkGwrFhsiiss] (Ac-[dV][dP][dK]G[dW][dR]F[dH][dS][dI][dI][dS][dS]-NH2), the Ki on MC5R was > 30 µM; on MC4R it was ~10 µM; on MC3R it was ~18 µM; on MC1R [1] it was 1.8 ± 3.5 nM. In assay [2], this compound registered an EC50 of 23 nM.
Turning to `CCCCSCC[C@@H](NC(=O)[C@@H](CCC(=O)O)NC(=O)[C@@H](Cc1c[nH]cn1)NC(=O)[C@@H](CC1CCCCC1)NC(=O)[C@@H](CCCNC(=N)N)NC(=O)[C@@H](Cc1c[nH]c2ccccc12)NC(=O)CNC(=O)[C@@H](CCCCN)NC(=O)[C@H]1CCCN1C(=O)[C@H](NC(C)=O)C(C)C)C(=O)N[C@H](CO)C(=O)N[C@H](Cc1ccc(O)cc1)C(=O)N[C@H](CO)C(N)=O` [compound 890, vpkGwr(D-Cha)he(d-Buthionine)sys], the Ki at MC5R was ~4.5 µM; on MC4R, ~14 µM; on MC3R, ~15 µM; on MC1R [1] it was 1.9 nM.
Consider `CC[C@@H](C)[C@@H](NC(=O)[C@@H](CO)NC(=O)[C@@H](Cc1c[nH]cn1)NC(=O)[C@@H](Cc1ccccc1)NC(=O)[C@@H](CCCNC(=N)N)NC(=O)[C@@H](Cc1c[nH]c2ccccc12)NC(=O)CNC(=O)[C@@H](CCCCN)NC(=O)[C@H]1CCCN1C(=O)[C@H](NC(C)=O)C(C)C)C(=O)N[C@@H](C(=O)N[C@H](CO)C(=O)N[C@H](CO)C(N)=O)[C@H](C)CC` [compound 886, vpkgwrfhsiiss] (Ac-[dV][dP][dK]G[dW][dR][dF][dH][dS][dI][dI][dS][dS]-NH2), for which the Ki is ~20 µM on MC5R, ~10 µM on MC4R, ~19 µM on MC3R and 1 nM at MC1R [1]. The compound further registered an EC50 in assay [2] of 2 nM.
Consider `CC[C@@H](C)[C@@H](NC(=O)[C@@H](CO)NC(=O)[C@@H](Cc1c[nH]cn1)NC(=O)[C@@H](CC1CCCCC1)NC(=O)[C@@H](CCCNC(=N)N)NC(=O)[C@@H](Cc1c[nH]c2ccccc12)NC(=O)CNC(=O)[C@@H](CCCCN)NC(=O)[C@H]1CCCN1C(=O)[C@H](NC(C)=O)C(C)C)C(=O)N[C@@H](C(=O)N[C@H](CO)C(=O)N[C@H](CO)C(N)=O)[C@H](C)CC` [compound 891, vpkGwr(D-Cha)hsiiss] (Ac-[dV][dP][dK]G[dW][dR][dCha][dH][dS][dI][dI][dS][dS]-NH2), for which the inhibitory constant (Ki) is ~2.5 µM at MC5R, ~3.2 µM on MC4R, ~8 µM on MC3R and 0.43 ± 0.01 nM on MC1R [1]. Besides, at MC1R [1], the “affinity for MC1R compared with parent peptide (in words)” value was “indistinguishable from MSH”. In assay [2], this compound yielded an EC50 of 81 nM. Moreover, the “potency to stimulate cAMP (in words)” value in assay [2] (data not shown) is “increased potency to stimulate cAMP”. Besides, the “binding affinity to mouse MC1R (in words)” value on mouse MC1R was “increased binding affinity”. In the assay on C57BL/6 mice (5 to 0.156 mg/kg), the “serum IL-10 vs vehicle (in words)” value is on record as “significant decrease”. Also, the “serum MCP-1 vs vehicle (in words)” value with C57BL/6 mice (setting [4]) is on record as “no affect”. Further, the “serum TNF-α vs vehicle (in words)” value with C57BL/6 mice (setting [4]) was “significant decrease”.

The Ki is the dissociation constant of the complex between target and ligand, obtained from inhibition or displacement. As a reminder, the EC50 is the concentration needed to bring the measured effect to its halfway point. Low values mean an effect from little substance, high ones a need for much substance.
